Patent US20060074047A1, “Method of treating inflammation with inhibitors of sialyl transferases” (priority 2004, published 2006)
Entries after “also recorded” stand apart in the source; their conditions may differ.

Legend:
[1] = test system: endogenous sialyltransferase activity of human polymorphonuclear leukocytes; assay: Sialyltransferase assay (flow cytometry), intact PMNs as endogenous ST source; format: cell-based
Excerpt: (§1) For the study of PMN ST activity, a previously described ST assay was adapted in which CMP-5-NANA served as the labeled sialyl residue donor and neuraminidase-treated RBCs as the sialyl residue acceptor (7). Based on preliminary studies, a standard reaction mixture contained a sialyl residue acceptor, either RBCs or polymorphonuclear leukocytes, CMP-5-NANA and a ST source. Purified α2,6-ST at a final concentration of 0.5 nU/ml, or polymorphonuclear leukocytes as an endogenous source of ST activity were used in a final volume of 100 μl cell incubation buffer (CIB) containing PBS plus 5 mg/ml BSA, pH 6.8. Sialyl residue acceptor SRBCs and polymorphonuclear leukocytes were desialylated with 25 mU/ml NANase/1-2×10^8/cells in 1 ml of CIB for 1 h at 37° C., washed once in CIB and used at 4×10^6 cells or at 8×10^6 cells respectively in a volume of 40 μl. When used as an endogenous source of ST activity, human polymorphonuclear leukocytes were adjusted to a stock concentration of 1×10^8 PMN/ml, lysed by freeze/thawing, centrifuged, and the protein concentration of the supernatant determined (Bio-Rad Laboratories, Hercules, Calif.). Intact human polymorphonuclear leukocytes at 8×10^6/0.1 ml assay volume were also used both as a source of ST activity as well as an acceptor of sialyl residues.
After gentle mixing, all tubes were incubated for 2 h at 37° C. in a humidified atmosphere containing 5% CO2. The cells were washed, pelleted and resuspended in CIB and analyzed fluorocytometrically on a FACScan II (Becton-Dickinson, Mountain View, Calif.). Based on forward and right angle light scatter properties, an electronic gate was placed around the RBCs or polymorphonuclear leukocytes which were excited at […] and emission measured at 530 nm. At least 10,000 events were recorded per condition. Data was analyzed with a CellQuest analysis program.
For each experiment, controls included omission of each of the components of the assay mixture, i.e., ST source, CMP-5 NANA or sialyl residue acceptor) as well as boiled, exogenous α2,6 ST. When indicated, 2-DN (0.04 mM, final concentration), an inhibitor of sialidase activity (8) was introduced to prevent the possible removal of the transferred sialyl residues. ST activity was measured after subtraction of background fluorescence, i.e., complete assay mixture minus either the exogenous ST or, for endogenous ST, in the presence and absence of the ST inhibitor, CMP (0.3 mM final concentration) and was expressed as % of maximal activity. For experiments in which it was estimated the endogenous ST activity, a standard curve was constructed using serial 2-fold dilutions of purified α2-6 ST enzyme from which tissue ST activity was interpolated, and expressed the ST activity as nU per μg protein.

α2,6 sialyltransferase = α2,6 sialyltransferase (Photobacterium damselae, UniProt O66375); assay: Sialyltransferase assay (flow cytometry), exogenous ST with PMNs as sialyl residue acceptors; format: cell-based, bacterial; details: 0.3 mM CMP
Sequence of α2,6 sialyltransferase (O66375 entry or part of it): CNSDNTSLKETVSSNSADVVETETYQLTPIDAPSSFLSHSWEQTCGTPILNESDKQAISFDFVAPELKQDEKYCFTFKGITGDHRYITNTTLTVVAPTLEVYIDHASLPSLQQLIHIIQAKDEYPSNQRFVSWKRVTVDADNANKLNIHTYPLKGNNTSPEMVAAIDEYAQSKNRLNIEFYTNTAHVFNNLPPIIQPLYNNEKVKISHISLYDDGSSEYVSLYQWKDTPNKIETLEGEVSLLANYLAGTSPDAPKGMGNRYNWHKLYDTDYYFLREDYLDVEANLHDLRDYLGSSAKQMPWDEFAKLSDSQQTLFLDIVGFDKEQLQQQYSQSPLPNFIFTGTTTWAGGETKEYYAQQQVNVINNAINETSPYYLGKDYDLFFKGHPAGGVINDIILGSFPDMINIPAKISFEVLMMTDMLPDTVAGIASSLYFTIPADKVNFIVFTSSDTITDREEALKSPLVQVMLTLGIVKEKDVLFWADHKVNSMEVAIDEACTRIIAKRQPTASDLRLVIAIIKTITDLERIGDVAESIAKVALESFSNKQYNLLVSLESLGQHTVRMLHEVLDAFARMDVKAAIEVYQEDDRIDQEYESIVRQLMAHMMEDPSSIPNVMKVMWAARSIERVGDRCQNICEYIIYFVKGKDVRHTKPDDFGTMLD
Excerpt: as §1, with “Sialyl residue acceptor SRBCs and polymorphonuclear leukocytes were desialylated with 25 mU/ml NANase/1-2×10^8/cells in 1 ml of CIB for 1 h at 37° C., washed once in CIB and used at 4×10^6 cells or at 8×10^6 cells respectively in a volume of 40 μl.” left out, “Intact human polymorphonuclear leukocytes at 8×10^6/0.1 ml assay volume were also used both as a source of ST activity as well as an acceptor of sialyl residues.” left out
After gentle mixing, all tubes were incubated for 2 h at 37° C. in a humidified atmosphere containing 5% CO2. The cells were washed, pelleted and resuspended in CIB and analyzed fluorocytometrically on a FACScan II (Becton-Dickinson, Mountain View, Calif.). Based on forward and right angle light scatter properties, an electronic gate was placed around the RBCs or polymorphonuclear leukocytes which were excited at […] and emission measured at 530 nm. At least 10,000 events were recorded per condition. […]

[2] = test system: polymorphonuclear leukocytes; assay: Preliminary tests of CMP toxicity to PMNs; format: cell-based, human; details: 0.3 mM CMP
[3] = test system: human polymorphonuclear leukocytes migrating across human pulmonary artery endothelial cells (HPAEC); assay: Transendothelial migration of PMNs across HPAEC monolayers in response to IL-8; format: cell-based; details: 0.3 mM CMP; TNF-treated HPAEC monolayers, IL-8 150 ng/ml, 2 h; p<0.03
Protocol: FIG. 4 depicts inhibition of transendothelial cell migration by an ST inhibitor, cytidine monophosphate (CMP). Calcein AM-labeled human polymorphonuclear leukocytes were added to human pulmonary artery endothelial cells (HPAEC) pre-treated for 4 hrs with rTNF (50 U/ml). TEM was measured in response to IL-8 (150 ng/ml) over 2 hr as previously described (6) in the absence and presence of 0.3 mM CMP. 4 chambers/variable were studied. This figure is representative of 3 independent experiments.
The ability of human polymorphonuclear leukocytes to migrate across human pulmonary artery endothelial cell (HPAEC) monolayers in response to a chemotactic stimulus (IL-8) was measured as previously described (6). Only EC monolayers retaining […] of a ^14C-bovine serum albumen tracer were studied (i.e. no loss of barrier function). After treatment of HPAECs for 4 h with 25 U/ml TNFr, calcein AM (Molecular Probes, Eugene, Oreg.)-labeled human polymorphonuclear leukocytes (5×10^5 cells/well) were introduced into the upper compartments of the assay chambers, incubated for 2 h at 37° C., after which time each lower compartment was sampled and fluorometrically assayed. A standard curve was established for each experiment from which polymorphonuclear leukocyte numbers could be interpolated from fluorescence units and PMN TEM was expressed as % migration.

[4] = test system: polymorphonuclear leukocytes adhering to human microvascular endothelial cells (HMVEC); assay: Adherence of resting PMNs to LPS-activated endothelial cells; format: cell-based; details: CMP 2.5 mM for 5 minutes prior to stimulation; LPS 100 ng/ml for 4 hrs; FIG. 5
Protocol: In contrast, when the human microvascular endothelial cells, HMVECs, are treated with lipopolysaccharide, LPS, (100 ng/ml for 4 hrs) to activate them, resting polymorphonuclear leukocytes adhere better to the HMVECs. […] When polymorphonuclear leukocytes are activated with the tetrapeptide FMLP (1×10^−7 M/cyt b for 5 min.) they adhere better than do resting polymorphonuclear leukocytes (FIG. 5). At this later stage of PMN-EC interaction, sialyltransferase doesn't play a role. It is contemplated that CMP appears to work by inhibiting the initial binding of non-activated polymorphonuclear leukocytes to the ECs and also works at the late stage where polymorphonuclear leukocytes that have migrated through the EC monolayer are unable to move further to the inflammatory nidus.

[5] = test system: polymorphonuclear leukocytes in the peritoneal fluid; assay: In vivo IL-8 recruitment of PMNs to the peritoneal fluid; details: mice; CMP intravenously 30 min before and 1 hr after IL-8 (150 ng/ml) intraperitoneally; counted at 2 hrs
Protocol: Mice are pre-treated intravenously with different doses of CMP 30 minutes before giving IL-8 (150 ng/ml) intraperitoneally to recruit polymorphonuclear leukocytes. This is followed with another dose of CMP one hr after the IL-8. Polymorphonuclear leukocytes in the peritoneal fluid of these mice are counted at 2 hrs after the IL-8, i.e., one hr after the second dose of CMP. The total polymorphonuclear leukocytes in the perioneal fluid of mice treated with CMP is compared with those given an equal volume of saline. It is contemplated that those receiving the CMP will have a lower number of polymorphonuclear leukocytes in the perioneal fluid.

CC(=O)N[C@H]1[C@H]([C@H](O)[C@H](O)CO)OC(C(=O)O)=C[C@@H]1O [2-DN, 2,3 deoxy-N-acetyl neuraminic acid]
MFI (ST activity) in presence of sialidase inhibitor 2-DN ([1]; FIG. 3B: intact untreated PMNs, 2-DN 0.04 mM final concentration, MFI 364 without 2-DN): 317

Nc1ccn([C@@H]2O[C@H](COP(=O)(O)O)[C@@H](O)[C@H]2O)c(=O)n1 [CMP, cytidine 5′-monophosphate]
MFI (mean fluorescence intensity) with CMP (α2,6 sialyltransferase; FIG. 2A: neuraminidase-pretreated PMNs + exogenous sialyltransferase, MFI 406 without CMP): 165 | MFI (mean fluorescence intensity) with CMP (α2,6 sialyltransferase; FIG. 2B: PMNs unexposed to neuraminidase + exogenous sialyltransferase, MFI 310 without CMP): 167 | inhibition of ST activity in vitro ([1]; 0.3 mM CMP, preliminary tests): fully inhibited | MFI (mean fluorescence intensity) with CMP ([1]; FIG. 2C: neuraminidase-pretreated PMNs + intact untreated PMNs as endogenous ST source, 0.3 mM CMP, MFI 295 without CMP): 141 | MFI (mean fluorescence intensity) with CMP ([1]; FIG. 2D: intact untreated PMNs added to PMNs not exposed to neuraminidase, 0.3 mM CMP, MFI 266 without CMP): 131 | mean fluorescence intensity (MFI) after CMP treatment ([1]; FIG. 3A: PMNs (8×10^6), 10 μM CMP-NANA, 0.3 mM CMP, MFI 364 without CMP): 222 | toxicity to the polymorphonuclear leukocytes [2]: not toxic | inhibition of TEM (transendothelial migration) [3]: > 40% | adherence of resting PMNs to LPS-treated HMVECs [4]: inhibits the initial binding; also recorded: decreased adherence | number of polymorphonuclear leukocytes in the peritoneal fluid vs saline [5]: lower number
